Series [1] deals with KRAS (G12C)::SOS1 (Homo sapiens (Human), UniProt P01116, C118S/C51S/C80L/G12C). Nature of the series: KRAS::SOS1 AlphaScreen binding assay, KRAS G12C. A digest of the protocol: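 KRAS 1-169 (biotinylated avi-tag) with GST-SOS1 564-1049 and 10 µM GDP in PBS/0.1% BSA/0.05% Tween 20: WT and G13D 10 nM each with 10 nM SOS1; G12D 10 nM and G12C 7.5 nM with 5 nM SOS1. After 30 min, glutathione acceptor/streptavidin donor beads were added for 60 min at RT in the dark, then AlphaScreen read; 4-parameter IC50.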

Series [2] has as its system AsPC-1 cells. As to the kind of experiment: AsPC-1 CTG proliferation assay (120 h) (pancreatic cancer, G12D). The series is classed as cell-based. The conditions noted are these: Homo sapiens, ASPC1. An outline of the steps:
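AsPC-1 cells (KRAS G12D), 2000/well in RPMI with 10% FCS, seeded overnight, then treated with compound for 120 h at 37 °C. Viability by CellTiter-Glo luminescence as percent of DMSO control. IC50 from a four-parameter non-linear fit.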

The nature of series [3]: Plasma protein binding assay (PPB), equilibrium dialysis, 10% FCS in PBS. The format is in vitro ADME. The conditions noted are these: bovine, read-out: PPB 10% FCS (% fu). An outline of the steps: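 Equilibrium dialysis (5-10 kg/mol cut-off membrane) of 1-10 μmol/L test compound in 10% FCS/PBS against PBS with or without dextran, 3-5 h at 37° C. Compound in each chamber quantified by LC-MS after protein precipitation; fu calculated from Cserum and Cbuffer.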

Sequence of KRAS (G12C)::SOS1 (P01116 other isoform, or with tags, fused parts or gaps G12C/C51S/C80L/C118S): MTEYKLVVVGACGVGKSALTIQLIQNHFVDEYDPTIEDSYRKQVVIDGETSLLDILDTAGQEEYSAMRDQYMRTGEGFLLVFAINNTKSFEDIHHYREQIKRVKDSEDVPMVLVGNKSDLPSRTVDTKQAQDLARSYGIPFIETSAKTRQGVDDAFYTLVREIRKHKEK

As for `C[C@H](Oc1cc(N2CCNC[C@]23CCOC3)nc(-c2onc3c2CCC[C@@]32CCCc3sc(N)c(C#N)c32)n1)[C@@H]1CCCN1C` [I-12], the IC50 came to 2 nM in series [1] and 235 nM in series [2]. Also, in series [3], the fraction unbound amounted to 0.46.

With `C[C@H](Oc1cc(N2CCNC[C@@]23CCOC3)nc(-c2onc3c2CCC[C@@]32CCCc3sc(N)c(C#N)c32)n1)[C@@H]1CCCN1C` [I-13], the IC50 in series [1] was determined as 7 nM; in series [2] it was 1550 nM. Besides, in series [3], the fraction unbound was 0.21.

Consider `C[C@H](Oc1cc(-n2cncc3ccnc2-3)nc(-c2onc3c2CCC[C@@]32CCCc3sc(N)c(C#N)c32)n1)[C@@H]1CCCN1C` [I-14], for which the IC50 stood at 2 nM in series [1] and 3410 nM in series [2]. In addition, the fraction unbound in series [3] is 0.1.

For the compound `C[C@H]1CNCCCN1c1nc(-c2onc3c2CCC[C@@]32CCCc3sc(N)c(C#N)c32)cc(C(F)(F)F)n1` [I-15], in series [1], the IC50 is 299 nM. Also, the fraction unbound in series [3] was determined as 0.08.

For `C[C@H](Oc1cc(-c2cn(C)nn2)nc(-c2onc3c2CCC[C@@]32CCCc3sc(N)c(C#N)c32)n1)[C@@H]1CCCN1C` [I-16], the IC50 in series [1] is 2 nM. The fraction unbound in series [3] turned out to be 0.55.

Consider `CO[C@@H]1C[C@@H]([C@H](C)Oc2cc(-c3cnn(C)n3)nc(-c3onc4c3CCC[C@@]43CCCc4sc(N)c(C#N)c43)n2)N(C)C1` [I-17], for which the IC50 in series [1] is 4 nM; in series [2], 9850 nM. Besides, in series [3], the fraction unbound stood at 0.24.

For `C[C@H](Oc1cc(-n2cncn2)nc(-c2onc3c2CCC[C@@]32CCCc3sc(N)c(C#N)c32)n1)[C@@H]1CCCN1C` [I-18], the IC50 is 2 nM in series [1] and 7070 nM in series [2]. Moreover, the fraction unbound in series [3] worked out at 0.61.

`C[C@H](Oc1cc(N2Cc3cnn(C)c3C2)nc(-c2onc3c2CCC[C@@]32CCCc3sc(N)c(C#N)c32)n1)[C@@H]1CCCN1C` [I-19]: the figures for the IC50 in series [1] and in series [2] were 2 nM and 3000 nM, respectively. Further, the fraction unbound in series [3] amounted to 0.48.

Regarding `C[C@H](Oc1cc(-n2cc(-c3cncs3)nn2)nc(-c2noc3c2CCC[C@@]32CCCc3sc(N)c(C#N)c32)n1)[C@@H]1CCCN1C` [II-125], the IC50 in series [1] is 2 nM; in series [2], 1370 nM. Besides, the fraction unbound in series [3] stood at 0.13.

Take `C[C@H](Oc1cc(-n2cnc(C(=O)N(C)C)c2)nc(-c2noc3c2CCC[C@@]32CCCc3sc(N)c(C#N)c32)n1)[C@@H]1CCCN1C` [II-126]: the IC50 in series [1] is 2 nM; in series [2] it was 10200 nM. The fraction unbound in series [3] came to 0.38.

Consider `C[C@H](Oc1cc(-c2ccn([C@H]3CCOC3)n2)nc(-c2noc3c2CCC[C@@]32CCCc3sc(N)c(C#N)c32)n1)[C@@H]1CCCN1C` [II-127], for which the IC50 stood at 2 nM in series [1] and 2760 nM in series [2]. For the same compound, in series [3], the fraction unbound came to 0.08.

For the compound `C[C@H](Oc1cc(-c2ccn(Cc3ncco3)n2)nc(-c2noc3c2CCC[C@@]32CCCc3sc(N)c(C#N)c32)n1)[C@@H]1CCCN1C` [II-128], the IC50 in series [1] was determined as 2 nM; in series [2] it was 2100 nM. Besides, the fraction unbound in series [3] was 0.06.

In the case of `C[C@H](Oc1cc(-c2ccn(C[C@H]3CCOC3)n2)nc(-c2noc3c2CCC[C@@]32CCCc3sc(N)c(C#N)c32)n1)[C@@H]1CCCN1C` [II-129], the IC50 in series [1] amounted to 2 nM; in series [2] it was 2080 nM. Further, the fraction unbound in series [3] came to 0.23.

For `C[C@H](Oc1cc(-n2ccc(-c3cnccn3)n2)nc(-c2noc3c2CCC[C@@]32CCCc3sc(N)c(C#N)c32)n1)[C@@H]1CCCN1C` [II-130], the IC50 was 2 nM in series [1] and 1080 nM in series [2]. In addition, the fraction unbound in series [3] is 0.03.

In turn, `C[C@H](Oc1cc(-n2nccc2-c2ccncc2)nc(-c2noc3c2CCC[C@@]32CCCc3sc(N)c(C#N)c32)n1)[C@@H]1CCCN1C` [II-131] gave an IC50 in series [2] of 3520 nM. Moreover, the fraction unbound in series [3] was determined as 0.01.

As for `C[C@H](Oc1cc(-n2cc(C(=O)N(C)C)nn2)nc(-c2noc3c2CCC[C@@]32CCCc3sc(N)c(C#N)c32)n1)[C@@H]1CCCN1C` [II-132], the IC50 in series [1] was 2 nM; in series [2], 5110 nM. In series [3], the fraction unbound was determined as 0.31.

Take `C[C@H](Oc1cc(-c2cccc(C(N)=O)c2)nc(-c2noc3c2CCC[C@@]32CCCc3sc(N)c(C#N)c32)n1)[C@@H]1CCCN1C` [II-133]: the IC50 in series [1] came out at 2 nM; in series [2], 2700 nM. For the same compound, the fraction unbound in series [3] turned out to be 0.04.

As to `C[C@H](O)Cn1ncc(-c2cc(O[C@@H](C)[C@@H]3CCCN3C)nc(-c3noc4c3CCC[C@@]43CCCc4sc(N)c(C#N)c43)n2)n1` [II-134], the IC50 in series [1] was found to be 2 nM; in series [2], 9670 nM. For the same compound, the fraction unbound in series [3] was determined as 0.31.

As for `C[C@H]1CNCCCN1c1cc(-c2ccn(C)n2)nc(-c2noc3c2CCC[C@@]32CCCc3sc(N)c(C#N)c32)n1` [II-140], the IC50 in series [1] came out at 5 nM; in series [2], 21600 nM.

In the case of `C[C@H](Oc1cc(-n2cc3c(n2)CCN(C)C3)nc(-c2noc3c2CCC[C@@]32CCCc3sc(N)c(C#N)c32)n1)[C@@H]1CCCN1C` [II-141], the IC50 in series [1] came out at 2 nM; in series [2], 244 nM. Further, in series [3], the fraction unbound was 0.6.

Regarding `C[C@H]1CNCCCN1c1cc(-n2ccnc2)nc(-c2noc3c2CCC[C@@]32CCCc3sc(N)c(C#N)c32)n1` [II-142], the half-maximal inhibitory concentration (IC50) in series [1] was determined as 5 nM; in series [2], 10100 nM.

Turning to `C[C@H](Oc1cc(N2CCOC2=O)nc(-c2noc3c2CCC[C@@]32CCCc3sc(N)c(C#N)c32)n1)[C@@H]1CCCN1C` [II-143], the IC50 in series [1] was found to be 2 nM; in series [2] it was 1510 nM. Moreover, in series [3], the fraction unbound was determined as 0.18.

Turning to `C[C@H](Oc1cc(-c2ccn(C)n2)nc(-c2noc3c2CCC[C@@]32CCCc3sc(N)c(C#N)c32)n1)[C@@H]1C[C@H](F)CN1C` [II-144], the IC50 in series [1] came out at 3 nM; in series [2] it was 7100 nM. In series [3], the fraction unbound is 0.11.

As for `C[C@H](Oc1cc(N2CCN(C)C3(COC3)C2)nc(-c2noc3c2CCC[C@@]32CCCc3sc(N)c(C#N)c32)n1)[C@@H]1C[C@@H](F)CN1C` [II-148], the IC50 in series [1] came to 2 nM; in series [2], 376 nM. The fraction unbound in series [3] came to 0.25.

In the case of `C[C@H](Oc1cc(N2CCN(C)C3(CC3)C2)nc(-c2noc3c2CCC[C@@]32CCCc3sc(N)c(C#N)c32)n1)[C@@H]1C[C@@H](F)CN1C` [II-149], the IC50 in series [1] is 8 nM; in series [2], 257 nM. The fraction unbound in series [3] amounted to 0.17.

For the compound `C[C@H](Oc1cc(N2CCNC3(COC3)C2)nc(-c2noc3c2CCC[C@@]32CCCc3sc(N)c(C#N)c32)n1)[C@@H]1C[C@@H](F)CN1C` [II-150], the IC50 is 2 nM in series [1] and 27 nM in series [2]. Also, in series [3], the fraction unbound is 0.13.

As to `C[C@H](Oc1cc(N2CCN(C)C3(CCOC3)C2)nc(-c2noc3c2CCC[C@@]32CCCc3sc(N)c(C#N)c32)n1)[C@@H]1C[C@@H](F)CN1C` (stereo partly drawn) [II-151], the IC50 in series [1] was 8 nM; in series [2], 714 nM. Besides, in series [3], the fraction unbound worked out at 0.24.

On to `CO[C@@H]1C[C@@H]([C@H](C)Oc2cc(N3CCN(C)C4(CC4)C3)nc(-c3noc4c3CCC[C@@]43CCCc4sc(N)c(C#N)c43)n2)N(C)C1` [II-152], for which the results for the IC50 in series [1] and in series [2] were 7 nM and 526 nM, respectively. Also, the fraction unbound in series [3] amounted to 0.08.

Consider `CO[C@@H]1C[C@@H]([C@H](C)Oc2cc(N3CCN(C)C4(COC4)C3)nc(-c3noc4c3CCC[C@@]43CCCc4sc(N)c(C#N)c43)n2)N(C)C1` [II-153], for which the IC50 in series [1] was 3 nM; in series [2] it was 577 nM. In series [3], the fraction unbound is 0.14.

Regarding `C[C@H](Oc1cc(-n2cc3c(n2)CNC3)nc(-c2noc3c2CCC[C@@]32CCCc3sc(N)c(C#N)c32)n1)[C@@H]1C[C@@H](F)CN1C` [II-154], the IC50 in series [1] came to 2 nM; in series [2], 1010 nM. Also, in series [3], the fraction unbound was determined as 0.1.

In the case of `C[C@H](Oc1nc(-c2noc3c2CCC[C@@]32CCCc3sc(N)c(C#N)c32)nc(N2CCNC3(CC3)C2)c1F)[C@@H]1C[C@@H](F)CN1C` [II-155], the values for the IC50 in series [1] and in series [2] were 2 nM and 11 nM, respectively. For the same compound, in series [3], the fraction unbound stood at 0.04.

`C[C@H](Oc1nc(-c2noc3c2CCC[C@@]32CCCc3sc(N)c(C#N)c32)nc(N2CCNC3(CC3)C2)c1Cl)[C@@H]1C[C@@H](F)CN1C` [II-156]: the IC50 in series [1] was found to be 2 nM; in series [2], 86 nM. The fraction unbound in series [3] stood at 0.04.

As for `C[C@H](Oc1nc(-c2noc3c2CCC[C@@]32CCCc3sc(N)c(C#N)c32)nc(N2C[C@H](C)NC3(CC3)C2)c1F)[C@@H]1C[C@@H](F)CN1C` [II-157], the results for the IC50 in series [1] and in series [2] were 2 nM and 129 nM, respectively. The fraction unbound in series [3] was found to be 0.03.

For the compound `C[C@@H]1CN(c2nc(-c3noc4c3CCC[C@@]43CCCc4sc(N)c(C#N)c43)nc(O[C@@H](C)[C@@H]3C[C@@H](F)CN3C)c2F)CC2(CC2)N1` [II-158], the IC50 in series [1] amounted to 2 nM; in series [2], 256 nM. In addition, in series [3], the fraction unbound came to 0.04.

For the compound `CC(C)N1CCCN(c2cc(-n3ccnc3)nc(-c3noc4c3CCC[C@@]43CCCc4sc(N)c(C#N)c43)n2)[C@@H](C)C1` [II-169], the values for the IC50 in series [1] and in series [2] were 3 nM and 3730 nM, respectively.
